IC50 and inhibition data for twelve compounds are collected here from ChEMBL document CHEMBL3616392, “Design, synthesis and biological evaluation of novel tetrahydroisoquinoline derivatives as potential PDE4 inhibitors” (Bioorg Med Chem Lett, 2015).

SMILES strings stand for the structures.

The target in test [1] is 3',5'-cyclic-AMP phosphodiesterase 4B (Homo sapiens, UniProt Q07343). Briefly: Inhibition of PDE4B isolated from human U937 cells using [3H]-cAMP as substrate after 30 mins. Type of test: cell-free, U-937.
Test [2] addresses 3',5'-cyclic-AMP phosphodiesterase 4D (Homo sapiens) (UniProt Q08499). Briefly: Inhibition of PDE4D isolated from human U937 cells using [3H]-cAMP as substrate at 20 uM after 30 mins. The format is cell-free. The conditions noted are these: U-937.

3',5'-cyclic-AMP phosphodiesterase 4D (Homo sapiens), sequence (Q08499 whole entry): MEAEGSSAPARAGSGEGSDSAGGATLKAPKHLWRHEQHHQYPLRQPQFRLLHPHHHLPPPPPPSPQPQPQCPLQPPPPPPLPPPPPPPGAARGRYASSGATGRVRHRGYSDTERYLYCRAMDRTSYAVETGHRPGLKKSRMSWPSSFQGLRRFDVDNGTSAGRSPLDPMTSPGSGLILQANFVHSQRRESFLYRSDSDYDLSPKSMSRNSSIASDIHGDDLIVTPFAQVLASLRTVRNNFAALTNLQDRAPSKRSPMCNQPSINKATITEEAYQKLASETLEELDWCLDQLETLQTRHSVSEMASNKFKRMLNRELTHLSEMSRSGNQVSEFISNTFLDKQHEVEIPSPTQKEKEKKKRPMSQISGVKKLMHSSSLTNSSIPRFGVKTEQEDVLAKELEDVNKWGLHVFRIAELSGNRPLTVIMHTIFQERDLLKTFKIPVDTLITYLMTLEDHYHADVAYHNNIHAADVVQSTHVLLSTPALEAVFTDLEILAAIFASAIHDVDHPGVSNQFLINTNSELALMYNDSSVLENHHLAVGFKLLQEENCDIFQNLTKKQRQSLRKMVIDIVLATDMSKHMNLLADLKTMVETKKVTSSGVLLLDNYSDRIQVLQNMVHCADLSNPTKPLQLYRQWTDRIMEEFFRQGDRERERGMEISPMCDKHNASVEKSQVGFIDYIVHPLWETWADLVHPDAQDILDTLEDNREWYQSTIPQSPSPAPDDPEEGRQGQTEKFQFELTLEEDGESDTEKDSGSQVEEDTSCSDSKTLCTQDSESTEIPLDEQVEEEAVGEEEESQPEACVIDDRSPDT
3',5'-cyclic-AMP phosphodiesterase 4B, sequence (Q07343 whole entry): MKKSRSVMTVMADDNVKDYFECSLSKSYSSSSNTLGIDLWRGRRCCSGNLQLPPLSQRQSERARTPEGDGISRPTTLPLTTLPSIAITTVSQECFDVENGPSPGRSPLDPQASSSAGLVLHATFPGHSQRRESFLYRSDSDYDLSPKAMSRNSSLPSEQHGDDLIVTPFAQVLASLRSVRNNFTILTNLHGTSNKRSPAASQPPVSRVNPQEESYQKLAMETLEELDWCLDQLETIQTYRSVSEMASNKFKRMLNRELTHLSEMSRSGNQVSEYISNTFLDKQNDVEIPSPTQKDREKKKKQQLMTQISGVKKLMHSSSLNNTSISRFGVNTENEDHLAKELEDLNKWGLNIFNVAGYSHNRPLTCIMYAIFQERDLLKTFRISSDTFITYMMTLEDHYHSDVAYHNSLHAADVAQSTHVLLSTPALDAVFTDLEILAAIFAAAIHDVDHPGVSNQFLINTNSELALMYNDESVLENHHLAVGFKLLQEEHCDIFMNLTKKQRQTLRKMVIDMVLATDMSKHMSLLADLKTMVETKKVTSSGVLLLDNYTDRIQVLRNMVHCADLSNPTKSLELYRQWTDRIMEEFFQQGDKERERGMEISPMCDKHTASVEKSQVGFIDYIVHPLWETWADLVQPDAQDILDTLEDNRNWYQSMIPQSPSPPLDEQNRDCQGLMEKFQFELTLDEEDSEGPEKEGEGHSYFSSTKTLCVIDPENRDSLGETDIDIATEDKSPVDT

As for `COc1cc2c(cc1OC1CCCC1)CN(C(=O)c1ccccn1)CC2`, the IC50 (commonly the midpoint of a concentration-inhibition curve) in test [1] was 37.9 µM.

Regarding `COc1cc2c(cc1OC1CCCC1)CN(C(=O)c1ccccc1OC)CC2`, the concentration for half-maximal inhibition (IC50) in test [1] stood at 37 µM.

Consider `COc1cc(C(=O)N2CCc3cc(OC)c(OC4CCCC4)cc3C2)ccc1O`, for which, in test [2], the inhibition (commonly the percentage by which the read-out fell short of the control) worked out at 17.4%. This compound displayed an IC50 in test [1] of 2.3 µM.

Compound `COc1cc2c(cc1OC1CCCC1)CN(C(=O)C1=C[C@@H](O)[C@@H](O)[C@H](O)C1)CC2` showed a 50% inhibitory concentration (IC50) in test [1] of over 50 µM.

As to `COc1cc2c(cc1OC1CCCC1)CN(C(=O)c1ccccc1F)CC2`, the concentration for half-maximal inhibition (IC50) in test [1] turned out to be 23.3 µM.

Take `COc1cc2c(cc1OC1CCCC1)CN(C(=O)c1ccccc1Cl)CC2`: the inhibition in test [2] is 15.3%. The compound also displayed an IC50 in test [1] of 15.5 µM.

For the compound `COc1cc2c(cc1OC1CCCC1)CN(C(=O)c1ccccc1)CC2`, the half-maximal inhibitory concentration (IC50) in test [1] came to 23.5 µM.

Consider `COc1cc2c(cc1OC1CCCC1)CN(C(=O)c1ccncc1)CC2`, for which the inhibition in test [2] worked out at 12.1%. Moreover, in test [1], the IC50 turned out to be 15.7 µM.

`COc1cc2c(cc1OC1CCCC1)CN(Cc1ccncc1)CC2` showed a half-maximal inhibitory concentration (IC50) in test [1] of 38.1 µM.

In the case of `COc1cc2c(cc1OC1CCCC1)CN(Cc1ccccc1F)CC2`, in test [1], inhibition was half-maximal at 43 µM (IC50).

Turning to `COc1cc(CN2CCc3cc(OC)c(OC4CCCC4)cc3C2)ccc1O`, in test [1], it took 26.8 µM to reach half-maximal inhibition (IC50).

`COc1cc2c(cc1OC1CCCC1)CN(C(=O)[C@H]1CC[C@H](N)CC1)CC2`: the IC50 in test [1] is over 50 µM.
